Reference: the NIST ThermoML archive (doi:10.1016/j.jct.2010.09.008)

What was measured:
[1] = relative permittivity at zero frequency (dimensionless); xn = mol fraction of the nth substance listed; conditions: 101.3 kPa, Liquid, AC Method
[2] = xn = mol fraction of the nth substance listed; conditions: 101.3 kPa, Liquid, Vibrating tube method
[3] = 101.33 kPa, Liquid, Vibrating tube method
[4] = relative permittivity at zero frequency (dimensionless); conditions: 101.33 kPa, Liquid, AC method

COCCOCCOCCOC [2,5,8,11-tetraoxadodecane] + CCCCCCC
Conditions	mass density [kg/m3]	relative permittivity at zero frequency
[1], 288.15 K, x2 = 0.0502	–	7.53
[1], 288.15 K, x2 = 0.0996	–	7.18
[1], 288.15 K, x2 = 0.2037	–	6.44
[1], 288.15 K, x2 = 0.3128	–	5.7
[1], 288.15 K, x2 = 0.3994	–	5.13
[1], 288.15 K, x2 = 0.5007	–	4.49
[1], 288.15 K, x2 = 0.6027	–	3.88
[1], 288.15 K, x2 = 0.7014	–	3.32
[1], 288.15 K, x2 = 0.8007	–	2.81
[1], 288.15 K, x2 = 0.8993	–	2.35
[1], 288.15 K, x2 = 0.9502	–	2.14
[1], 298.15 K, x2 = 0.0511	–	7.28
[1], 298.15 K, x2 = 0.0992	–	6.94
[1], 298.15 K, x2 = 0.2012	–	6.26
[1], 298.15 K, x2 = 0.3025	–	5.59
[1], 298.15 K, x2 = 0.4095	–	4.91
[1], 298.15 K, x2 = 0.5014	–	4.36
[1], 298.15 K, x2 = 0.6006	–	3.79
[1], 298.15 K, x2 = 0.6989	–	3.26
[1], 298.15 K, x2 = 0.7898	–	2.81
[1], 298.15 K, x2 = 0.902	–	2.31
[1], 298.15 K, x2 = 0.9501	–	2.11
[1], 308.15 K, x2 = 0.0504	–	7.04
[1], 308.15 K, x2 = 0.1008	–	6.71
[1], 308.15 K, x2 = 0.2074	–	6.01
[1], 308.15 K, x2 = 0.3092	–	5.37
[1], 308.15 K, x2 = 0.4042	–	4.8
[1], 308.15 K, x2 = 0.5048	–	4.22
[1], 308.15 K, x2 = 0.6022	–	3.69
[1], 308.15 K, x2 = 0.7071	–	3.15
[1], 308.15 K, x2 = 0.801	–	2.7
[1], 308.15 K, x2 = 0.9016	–	2.28
[1], 308.15 K, x2 = 0.9514	–	2.09
[2], 288.15 K, x2 = 0.0478	977.7	–
[2], 288.15 K, x2 = 0.1018	963.5	–
[2], 288.15 K, x2 = 0.2008	936.93	–
[2], 288.15 K, x2 = 0.3046	908.26	–
[2], 288.15 K, x2 = 0.4046	879.55	–
[2], 288.15 K, x2 = 0.502	850.68	–
[2], 288.15 K, x2 = 0.5988	821.04	–
[2], 288.15 K, x2 = 0.6937	791	–
[2], 288.15 K, x2 = 0.7981	756.91	–
[2], 288.15 K, x2 = 0.8992	722.88	–
[2], 288.15 K, x2 = 0.9471	706.43	–
[2], 298.15 K, x2 = 0.0478	968.24	–
[2], 298.15 K, x2 = 0.1018	954.08	–
[2], 298.15 K, x2 = 0.2008	927.56	–
[2], 298.15 K, x2 = 0.3046	898.85	–
[2], 298.15 K, x2 = 0.4046	870.31	–
[2], 298.15 K, x2 = 0.502	841.51	–
[2], 298.15 K, x2 = 0.5988	811.96	–
[2], 298.15 K, x2 = 0.6937	782.03	–
[2], 298.15 K, x2 = 0.7981	748.1	–
[2], 298.15 K, x2 = 0.8992	714.23	–
[2], 298.15 K, x2 = 0.9471	697.88	–
[2], 308.15 K, x2 = 0.0478	958.76	–
[2], 308.15 K, x2 = 0.1018	944.65	–
[2], 308.15 K, x2 = 0.2008	918.17	–
[2], 308.15 K, x2 = 0.3046	889.51	–
[2], 308.15 K, x2 = 0.4046	861.04	–
[2], 308.15 K, x2 = 0.502	832.28	–
[2], 308.15 K, x2 = 0.5988	802.84	–
[2], 308.15 K, x2 = 0.6937	773	–
[2], 308.15 K, x2 = 0.7981	739.22	–
[2], 308.15 K, x2 = 0.8992	705.5	–
[2], 308.15 K, x2 = 0.9471	689.25	–

COCCOCCOCCOC [2,5,8,11-tetraoxadodecane]
Conditions	mass density, 288.15 K [kg/m3]	mass density, 298.15 K [kg/m3]	mass density, 308.15 K [kg/m3]	relative permittivity at zero frequency, 288.15 K	relative permittivity at zero frequency, 298.15 K	relative permittivity at zero frequency, 308.15 K
[3]	990.08	980.58	971.07	–	–	–
[4]	–	–	–	7.89	7.63	7.38

COCCOC [1,2-dimethoxyethane] + CCCCCCC
Conditions	mass density [kg/m3]	relative permittivity at zero frequency
[1], 288.15 K, x2 = 0.1012	–	6.32
[1], 288.15 K, x2 = 0.2002	–	5.43
[1], 288.15 K, x2 = 0.3003	–	4.69
[1], 288.15 K, x2 = 0.3997	–	4.07
[1], 288.15 K, x2 = 0.5024	–	3.52
[1], 288.15 K, x2 = 0.6016	–	3.07
[1], 288.15 K, x2 = 0.7002	–	2.72
[1], 288.15 K, x2 = 0.7979	–	2.42
[1], 288.15 K, x2 = 0.9022	–	2.15
[1], 288.15 K, x2 = 0.9511	–	2.04
[1], 298.15 K, x2 = 0.1013	–	6.04
[1], 298.15 K, x2 = 0.2013	–	5.2
[1], 298.15 K, x2 = 0.3011	–	4.5
[1], 298.15 K, x2 = 0.3992	–	3.92
[1], 298.15 K, x2 = 0.503	–	3.41
[1], 298.15 K, x2 = 0.6035	–	3
[1], 298.15 K, x2 = 0.7028	–	2.67
[1], 298.15 K, x2 = 0.7982	–	2.38
[1], 298.15 K, x2 = 0.902	–	2.13
[1], 298.15 K, x2 = 0.9497	–	2.03
[1], 308.15 K, x2 = 0.0493	–	6.26
[1], 308.15 K, x2 = 0.1001	–	5.79
[1], 308.15 K, x2 = 0.2005	–	4.99
[1], 308.15 K, x2 = 0.3016	–	4.34
[1], 308.15 K, x2 = 0.399	–	3.8
[1], 308.15 K, x2 = 0.5009	–	3.32
[1], 308.15 K, x2 = 0.603	–	2.93
[1], 308.15 K, x2 = 0.7028	–	2.6
[1], 308.15 K, x2 = 0.802	–	2.33
[1], 308.15 K, x2 = 0.8974	–	2.11
[1], 308.15 K, x2 = 0.9505	–	2.01
[2], 288.15 K, x2 = 0.0495	857.82	–
[2], 288.15 K, x2 = 0.0995	844.28	–
[2], 288.15 K, x2 = 0.2045	818.14	–
[2], 288.15 K, x2 = 0.2979	797.21	–
[2], 288.15 K, x2 = 0.403	775.91	–
[2], 288.15 K, x2 = 0.5042	757.33	–
[2], 288.15 K, x2 = 0.5998	741.27	–
[2], 288.15 K, x2 = 0.7021	725.61	–
[2], 288.15 K, x2 = 0.8053	711.33	–
[2], 288.15 K, x2 = 0.8998	699.44	–
[2], 288.15 K, x2 = 0.9508	693.43	–
[2], 298.15 K, x2 = 0.0503	846.65	–
[2], 298.15 K, x2 = 0.0974	834.02	–
[2], 298.15 K, x2 = 0.2008	808.4	–
[2], 298.15 K, x2 = 0.2994	786.5	–
[2], 298.15 K, x2 = 0.401	766.2	–
[2], 298.15 K, x2 = 0.5026	747.97	–
[2], 298.15 K, x2 = 0.5967	732.41	–
[2], 298.15 K, x2 = 0.6994	716.96	–
[2], 298.15 K, x2 = 0.8019	702.94	–
[2], 298.15 K, x2 = 0.9009	690.67	–
[2], 298.15 K, x2 = 0.9509	684.9	–
[2], 308.15 K, x2 = 0.0496	836.12	–
[2], 308.15 K, x2 = 0.0998	822.77	–
[2], 308.15 K, x2 = 0.2009	798.1	–
[2], 308.15 K, x2 = 0.3035	775.66	–
[2], 308.15 K, x2 = 0.4011	756.35	–
[2], 308.15 K, x2 = 0.5021	738.24	–
[2], 308.15 K, x2 = 0.6	722.36	–
[2], 308.15 K, x2 = 0.7018	707.33	–
[2], 308.15 K, x2 = 0.8036	693.71	–
[2], 308.15 K, x2 = 0.9014	681.82	–
[2], 308.15 K, x2 = 0.9519	676.15	–

COCCOCCOCCOCCOC [2,5,8,11,14-pentaoxapentadecane]
Conditions	mass density, 288.15 K [kg/m3]	mass density, 298.15 K [kg/m3]	mass density, 308.15 K [kg/m3]	relative permittivity at zero frequency, 288.15 K	relative permittivity at zero frequency, 298.15 K	relative permittivity at zero frequency, 308.15 K
[3]	1015.96	1006.68	997.27	–	–	–
[4]	–	–	–	8.04	7.78	7.55
